# Test results published in patent publication US20180271809A1, “USE OF NICLOSAMIDE IN THE TREATMENT OF P53-DEFICIENT CELLS” (AGENCY FOR SCIENCE, TECHNOLOGY AND RESEARCH, priority 2015, published 2018).
# What was measured:
# [1] = tested on: HCT116 p53^−/− cells; test: Co-culture cell viability / competition assay of H2B-GFP HCT116 p53+/+ and H2B-RFP HCT116 p53−/− cells; format: cell-based
# Method: Stably expressing H2B-GFP-HCTp53^+/+ cell (wild type p53 cells) and H2B-RFP-HCTp53^−/− cells (cells lacking p53) were grown in co-culture to screen drug compounds sensitizing either wild type p53 cells or p53-negative cells. Briefly, 200 cells of each
# HCT116p53^+/+ and HCT116p53^−/− were plated in a pre-coated 384-well drug plates at final cell density of 400 cells per well at a final volume of 80 μl per well. After plating cells into respective wells, plates were incubated for 6 days. After 6 days of drug incubation, plates were imaged in an Incell Analyzer 200 machine by performing a multi-channel read, that is applying FITC staining to count GFP positive cells and Texas Red staining to count RFP positive cells. After imaging, the raw data was processed through the Incell-Investigator software to count the number of GFP positive and RFP positive cells.
# Wildtype HCT116 cells expressing H2B-GFP were co-cultured with HCT115 p53^−/− cells expressing H2B-RFP. […]
# 2000 cells each of H2B-GFP-HCT116p53^+/+ and H2B-RFP-HCT116p53^−/− were grown as co-culture in 96-well plates in a total volume of 100 ∥l. […] After 6 days of recovery, the cells were imaged in an Incell Analyzer 2000 machine and the percentage of viable cells was determined and plotted against the drug concentrations used in the experiment.
# [2] = tested on: HCT116 p53^−/− cells; test: Colony forming assay (crystal violet) in isogenic HCT116 cell lines; format: cell-based; conditions: 0.5-3 μM, 48 hours of drug treatment, recovery
# [3] = tested on: Human skin fibroblast cells (TOBA cells); test: Cell viability (light microscopy) and Annexin V apoptosis assay in p53-depleted human skin fibroblast cells; format: cell-based
# Method: Human skin fibroblast cells (TOBA cells) were infected either with a control shRNA lentivirus or a p53-targeting shRNA virus (as described in the preceding section). After generation of a stable p53-knockdown (using puro selection), cells were analysed for cell viability in response to different doses of niclosamide. Briefly, wild type Toba cells, and p53 depleted cells were plated at 20,000 cell density in 6 well plates. Next day, cells were either DMSO treated or treated with varying doses of niclosamide. After 48 hours of drug incubation, the drug containing media was replaced with new cell culture medium to start recovery. After 8 days of recovery, the cells were imaged in light microscope at 10× objective lens.
# As described above, DMSO and niclosamide-treated cells were analysed for the presence of apoptotic cell death by Annexin V staining. All cells in a well, including both rounded floating (that is, dead or dying cells) and adherent cells (that is, live cells) were collected carefully by trypsinisation and centrifuged at 400 g for 5 minutes. The pellet was resuspended in 200 μl of incubation buffer and after re-suspension, centrifuged at same speed as above to collect the washed sample pellets. […]
# [4] = tested on: p53-deficient HCT116 spheroid; test: 3D spheroid growth of co-cultured HCT116 p53+/+ and p53−/− cells; format: cell-based; conditions: 48 hours drug incubation, 6 more days culture
# Method: H2B-GFP- HCT116p53^+/+ and H2B-RFP-p53^−/− cells were grown as co-culture in a ultralow attachment 96-well cell culture plates to promote the spheroid formation. Briefly, to generate 3D multicellular spheroids, H2B-GFP expressing wild type (WT) p53 cells and H2B-RFP expressing p53-negative cells were each seeded at 250 cells per 100 ∥l culture media into 96-well round-bottomed plate and spun down (1000 g, 5 min). The seeded cells were cultured for two days in 5% CO2 humidified atmosphere at 37° C. On third day, cells were either DMSO treated or treated with different doses of niclosamide. After 48 hours of drug incubation, spheroids were diluted to non-toxic concentrations via media exchange. Treated spheroids were then further cultured for 6 more days. Spheroids were imaged in Incell analyser 2000 with FITC and Texas-Red channels.
# [5] = tested on: p53 null and p53 mutant cancer cells; test: Apoptotic cell death assays in p53 null and p53 mutant cancer cell lines; format: cell-based; conditions: data not shown
# Method: To this end, various cancer cell lines/types were seeded according to their growth rate to be confluent at the same time. These cell lines were each treated with differing niclosamide concentrations for 48 hours. The cells were then allowed to recover in their respective media for 6 days, after which apoptotic cell death assays were performed. The resulting percentage of apoptotic cells in each sample were plotted on a 3D graph (data not shown).
# [6] = tested on: Mouse embryonic stem cells harbouring a p53K0 mutation; test: Teratoma growth in nude mice from mouse embryonic stem cells pre-treated with niclosamide; format: in vivo; conditions: mES cells treated with 2 μM for 48 hours before injection into nude mice; tumours observed after 24 days / 3 weeks
# Method: Mouse embryonic stem cells harbouring a p53K0 mutation were either treated with DMSO or treated with niclosamide at a concentration of 2 μM for 48 hours. The resulting trypsinised cells were then resuspended in Phosphate buffer Saline. The cells were counted and resuspended to result in a final cell concentration of 1×10^6 cells/100 μl. Immediately after counting, the cells were transferred to animal facility for nude mice injection. 100 μl of DMSO treated cells were injected into the right inguinal region, while 100 μl niclosamide treated cells were injected into the left inguinal region of each mouse. After 24 days of the injection, tumour growth was observed. The resulting teratomas were surgically removed analysed to observe the ability of niclosamide to inhibit tumour growth. […] Therefore, an in vivo tumour model in nude mice was utilised. As a control, mouse embryonic stem (mES) cells were injected into nude mice and the mice monitored for the presence of tumour growth (teratomas). mES cells treated with niclosamide or DMSO treated control cells were injected into nude mice and tumour growth monitored after 3 weeks.
# [7] = tested on: ovarian tumour samples derived from patient biopsy samples; test: Patient-derived ovarian tumour xenograft mouse model; format: in vivo; conditions: 150 mg/kg once, intravenously; 30 days post treatment
# Method: Experiments were also performed using a patient-derived xenograft mouse model. In these experiments, ovarian tumour samples derived from patient biopsy samples were implanted into either the left or right flank of the mouse. These tumours were allowed to establish in the mouse and the tumour volume was measured according to standard practice every 2 days post implantation. After reaching a minimum threshold size of about 200 mm^3, the mice were treated once, intravenously, with niclosamide at a concentration of 150 mg/kg. The change in tumour volume was measured for further 30 days post treatment.
# [8] = tested on: mouse embryonic fibroblast (MEF) cells harbouring p53 mutations (+/R172 or R172/R172); test: Niclosamide sensitivity of mouse embryonic fibroblast (MEF) cells with wild type or mutant p53; format: cell-based; conditions: p53 +/R172 or R172/R172 versus wild type
# [9] = tested on: Caspase-3; test: Caspase-3 immunoblot of niclosamide-treated HCT116 cells; format: cell-based; conditions: HCT116 wild type p53 versus p53 deficient
# Method: Like human fibroblast cells, these cells were also tested for apoptotic cell death, the data of which is shown in the graphs shown in FIG. 4B). […] Both HCT116 cells with wild type p53 and those which were p53 deficient were treated with niclosamide, and protein samples were immunoblotted with Caspase-3 antibody.
smiles,measurement,setting,value
"O=C(Nc1ccc([N+](=O)[O-])cc1Cl)c1cc(Cl)ccc1O [niclosamide, 2′,5-dichloro-4′-nitrosalicylanilide]","cell viability, HCT116 p53−/− versus HCT116 p53 wildtype (cell viability assay)","[1]; after 48 hours of drug treatment, compared with DMSO controls",decrease in the viability of HCT116 p53^−/− cells to a greater extent than the HCT116 p53 wildtype cells
same,selective targeting in chemical biology screen (relative percentages of GFP and RFP cells),"[1]; co-culture, 48 hours treatment, 7 days recovery in drug free media",selectively targeting HCT116 p53^−/− cells
same,"cell viability, HCT116 p53−/− versus HCT116 p53 wildtype (colony formation assay)",[2],decrease in the viability of HCT116 p53^−/− cells to a greater extent than the HCT116 p53 wildtype cells
same,apoptosis (Annexin V) in p53-deficient versus wildtype human fibroblasts,"[3]; 1-4 μM, 48 hours, then recovery, flow cytometry",greater extent of apoptosis in p53-deficient human fibroblasts
same,sensitivity / killing of p53-deficient human fibroblast cells (FIG. 3 taken together),[3]; shp53 versus shcontrol cells,preferential killing of p53 deficient cells
same,"3D spheroid growth, p53-deficient versus wildtype HCT116",[4],greater reduction of 3D p53-deficient HCT116 spheroid growth compared to wildtype spheroid
same,susceptibility (apoptotic cells) of p53 null and p53 mutant cancer cells,"[5]; 48 hours treatment, 6 days recovery",strongly susceptible to treatment with niclosamide in a dose dependent manner
same,cell viability of the remaining (surviving) cells,[5]; certain cell lines,differentially reduced cell viability of the remaining cells in certain cell lines
same,size of the teratomas versus DMSO control,[6],significant reduction in the size of the teratomas
same,tumour growth (tumour volume) versus PBS control,[7],reduction in tumour growth
same,"niclosamide sensitivity of p53 mutant MEF cells (bright field, crystal violet)",[8],p53 mutant MEF cells are sensitive to niclosamide
same,induction of cleaved caspase in p53 deficient HCT116 cells (western blot),[9],clear induction of the cleaved caspase in p53 minus
